Molecules are shown by their SMILES.

Here are results for 8 molecules from patent US20040058898A1, “Pharmaceutical composition for alleviating the violence of a mammal comprising nortestosterone derivatives” (priority 2002, published 2004).

What all share (assay type): in vivo
The subject of test [1] is male ostriches which violently behaved, cried and did not take feed. The test is described as follows: Alleviation of the violence and stimulation of the appetite in male ostrich. Conditions: for Alleviation of the violence and stimulation of the appetite: results compared with 17β-decanoate-4-estren-3-one / Alleviation of the violence and stimulation of the appetite according to administered amount: results compared with 17β-decanoate-4-estren-3-one: male ostrich; for Alleviation of the violence and stimulation of the appetite: results compared with 17β-decanoate-4-estren-3-one: same procedures as Experimental Example 1 (100 kg, intramuscular, 100 mg), Example 1 result: alleviated violence and stimulated appetite; for Alleviation of the violence and stimulation of the appetite according to administered amount: results compared with 17β-decanoate-4-estren-3-one: same procedures as Experimental Example 2 (100 kg, intramuscular, 10 to 1000 mg), Example 2 result: alleviated violence and stimulated appetite at every amount. The text has this: (§1) After administration, their behaviors and appetites were observed.

Test [2] deals with male goats which violently behaved, cried and did not take feed. The test is described as follows: Alleviation of the violence and stimulation of the appetite in male goat. The conditions noted are these: male goats 40 kg, 4, 8, 20, 40, 60, 80, 200 and 400 mg (0.1 to 10 mg per kg), Experimental Example 27, summary of Table 10.
Text: as §1

The subject of test [3] is male cats which violently behaved, cried and did not take feed. The test is described as follows: Alleviation of the violence and stimulation of the appetite in male cat. Conditions: male cats 1 kg, 0.1, 0.2, 0.5, 1.0, 1.5, 2.0, 5.0 and 10 mg (0.1 to 10 mg per kg), Experimental Example 23, summary of Table 6.
Text: as §1

Test [4] deals with male horses which violently behaved, cried and did not take feed. The test is described as follows: Alleviation of the violence and stimulation of the appetite in male horse. Conditions: male horses 200 kg, 20, 40, 100, 200, 300, 400, 1000 and 2000 mg (0.1 to 10 mg per kg), Experimental Example 25, summary of Table 8.
Text: as §1

Test [5] deals with male dogs which violently behaved, cried and did not take feed. The test is described as follows: Alleviation of the violence and stimulation of the appetite in male dog. The conditions noted are these: male dogs 40 kg, 4, 8, 20, 40, 60, 80, 200 and 400 mg (0.1 to 10 mg per kg), Experimental Example 21, summary of Table 4.
Text: as §1

The mark [6] stands for this setting: male ostriches 100 kg, 10, 20, 50, 100, 150, 200, 500 and 1000 mg (0.1 to 10 mg per kg), Experimental Example 2, summary of Table 2.

For `CCC(=O)O[C@H]1CC[C@H]2[C@@H]3CCC4=CC(=O)CC[C@@H]4[C@H]3CC[C@]12C` [17β-propionate-4-estren-3-one], in test [1], the “Alleviation of the violence and stimulation of the appetite: results compared with 17β-decanoate-4-estren-3-one” value is given as “the same with the result of the experiment using 17β-decanoate-4-estren-3-one in Experimental Example 1”; the “Alleviation of the violence and stimulation of the appetite according to administered amount: results compared with 17β-decanoate-4-estren-3-one” value is given as “the same with the result of the experiment using 17β-decanoate-4-estren-3-one in Experimental Example 2”.

For `C[C@]12CC[C@H]3[C@@H](CCC4=CC(=O)CC[C@@H]43)[C@@H]1CC[C@@H]2OC(=O)C1CCCCC1` [17β-cyclohexanecarboxylate-4-estren-3-one], in test [1], the “Alleviation of the violence and stimulation of the appetite: results compared with 17β-decanoate-4-estren-3-one” value is “the same with the result of the experiment using 17β-decanoate-4-estren-3-one in Experimental Example 1”; the “Alleviation of the violence and stimulation of the appetite according to administered amount: results compared with 17β-decanoate-4-estren-3-one” value is recorded as “the same with the result of the experiment using 17β-decanoate-4-estren-3-one in Experimental Example 2”.

Turning to `CCCCCCOc1ccc(CCC(=O)O[C@H]2CC[C@H]3[C@@H]4CCC5=CC(=O)CC[C@@H]5[C@H]4CC[C@]23C)cc1` [17β-p-hexyloxyphenylpropionate-4-estren-3-one], in test [1], the “Alleviation of the violence and stimulation of the appetite: results compared with 17β-decanoate-4-estren-3-one” value was “the same with the result of the experiment using 17β-decanoate-4-estren-3-one in Experimental Example 1”; the “Alleviation of the violence and stimulation of the appetite according to administered amount: results compared with 17β-decanoate-4-estren-3-one” value is “the same with the result of the experiment using 17β-decanoate-4-estren-3-one in Experimental Example 2”.

With `CCCCCCCCCCCC(=O)O[C@H]1CC[C@H]2[C@@H]3CCC4=CC(=O)CC[C@@H]4[C@H]3CC[C@]12C` [17β-dodecanoate-4-estren-3-one], in test [1], the “Alleviation of the violence and stimulation of the appetite: results compared with 17β-decanoate-4-estren-3-one” value is given as “the same with the result of the experiment using 17β-decanoate-4-estren-3-one in Experimental Example 1”; the “Alleviation of the violence and stimulation of the appetite according to administered amount: results compared with 17β-decanoate-4-estren-3-one” value is “the same with the result of the experiment using 17β-decanoate-4-estren-3-one in Experimental Example 2”.

In the case of `C[C@]12CC[C@H]3[C@@H](CCC4=CC(=O)CC[C@@H]43)[C@@H]1CC[C@@H]2OC(=O)CCc1ccccc1` [17β-phenpropionate-4-estren-3-one], in test [1], the “Alleviation of the violence and stimulation of the appetite: results compared with 17β-decanoate-4-estren-3-one” value is given as “the same with the result of the experiment using 17β-decanoate-4-estren-3-one in Experimental Example 1”; the “Alleviation of the violence and stimulation of the appetite according to administered amount: results compared with 17β-decanoate-4-estren-3-one” value is recorded as “the same with the result of the experiment using 17β-decanoate-4-estren-3-one in Experimental Example 2”.

As for `C[C@]12CC[C@H]3[C@@H](CCC4=CC(=O)CC[C@@H]43)[C@@H]1CC[C@@H]2OC(=O)CCC1CCCCC1` [17β-cyclohexylpropinoate-4-estren-3-one], in test [1], the “Alleviation of the violence and stimulation of the appetite: results compared with 17β-decanoate-4-estren-3-one” value is recorded as “the same with the result of the experiment using 17β-decanoate-4-estren-3-one in Experimental Example 1”.

Consider `C[C@]12CC[C@H]3[C@@H](CCC4=CC(=O)CC[C@@H]43)[C@@H]1CC[C@@H]2O` [17β-hydroxy-4-estren-3-one], for which the “appetite after intramuscular injection” value in test [2], in test [3], in test [4], in test [1] (setting [6]) and in test [5] was “appetite stimulated” each time. For the same molecule, the “feed intake after administration” value in test [2], in test [3], in test [4], in test [1] (setting [6]) and in test [5] was “increased feed intake” in each case. Moreover, the “violence of estrus after intramuscular injection” value in test [2], in test [3], in test [4], in test [1] (setting [6]) and in test [5] was “violence of estrus alleviated” each time. Further, the “Alleviation of the violence and stimulation of the appetite: results compared with 17β-decanoate-4-estren-3-one” value in test [1] is recorded as “the same with the result of the experiment using 17β-decanoate-4-estren-3-one in Experimental Example 1”. For the same molecule, the “Alleviation of the violence and stimulation of the appetite according to administered amount: results compared with 17β-decanoate-4-estren-3-one” value in test [1] is listed as “the same with the result of the experiment using 17β-decanoate-4-estren-3-one in Experimental Example 2”.

For the molecule `C[C@]12CC[C@H]3[C@@H](CCC4=CC(=O)CC[C@@H]43)[C@@H]1CC[C@@H]2OC(=O)c1ccccc1` [17β-benzoate-4-estren-3-one], in test [1], the “Alleviation of the violence and stimulation of the appetite: results compared with 17β-decanoate-4-estren-3-one” value is listed as “the same with the result of the experiment using 17β-decanoate-4-estren-3-one in Experimental Example 1”; the “Alleviation of the violence and stimulation of the appetite according to administered amount: results compared with 17β-decanoate-4-estren-3-one” value is “the same with the result of the experiment using 17β-decanoate-4-estren-3-one in Experimental Example 2”.
